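Test compounds were applied to cells in 96-well plates for 48 hours at 5 doses. Here, GI50 denotes the concentration required for 50% inhibition of growth. At the TGI there is no net growth.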
Tests used:
Experiment in all cases: NCI-60 cell line screen, 48 h
786-0 renal = system: 786-0 renal
A498 renal = system: A498 renal
A549 NSCLC = system: A549 NSCLC
ACHN renal = system: ACHN renal
BT-549 breast = system: BT-549 breast
CAKI-1 renal = system: CAKI-1 renal
CCRF-CEM leukemia = system: CCRF-CEM leukemia
COLO 205 colon = system: COLO 205 colon
EKVX NSCLC = system: EKVX NSCLC
HCC-2998 colon = system: HCC-2998 colon
HCT-116 colon = system: HCT-116 colon
HCT-15 colon = system: HCT-15 colon
HL-60(TB) leukemia = system: HL-60(TB) leukemia
HOP-62 NSCLC = system: HOP-62 NSCLC
HOP-92 NSCLC = system: HOP-92 NSCLC
HS 578T breast = system: HS 578T breast
HT29 colon = system: HT29 colon
IGROV1 ovarian = system: IGROV1 ovarian
K-562 leukemia = system: K-562 leukemia
KM12 colon = system: KM12 colon
LOX IMVI melanoma = system: LOX IMVI melanoma
M14 melanoma = system: M14 melanoma
MALME-3M melanoma = system: MALME-3M melanoma
MCF7 breast = system: MCF7 breast
MDA-MB-231 breast = system: MDA-MB-231 breast
MDA-MB-435 = system: MDA-MB-435
MOLT-4 leukemia = system: MOLT-4 leukemia
NCI-H226 lung = system: NCI-H226 lung
NCI-H23 lung = system: NCI-H23 lung
NCI-H460 lung = system: NCI-H460 lung
NCI-H522 lung = system: NCI-H522 lung
NCI/ADR-RES ovarian = system: NCI/ADR-RES ovarian
OVCAR-3 ovarian = system: OVCAR-3 ovarian
OVCAR-4 ovarian = system: OVCAR-4 ovarian
OVCAR-5 ovarian = system: OVCAR-5 ovarian
OVCAR-8 ovarian = system: OVCAR-8 ovarian
PC-3 prostate = system: PC-3 prostate
RPMI-8226 leukemia = system: RPMI-8226 leukemia
RXF 393 renal = system: RXF 393 renal
SF-268 CNS = system: SF-268 CNS
SF-295 CNS = system: SF-295 CNS
SF-539 CNS = system: SF-539 CNS
SK-MEL-2 melanoma = system: SK-MEL-2 melanoma
SK-MEL-28 melanoma = system: SK-MEL-28 melanoma
SK-MEL-5 melanoma = system: SK-MEL-5 melanoma
SK-OV-3 ovarian = system: SK-OV-3 ovarian
SN12C renal = system: SN12C renal
SNB-19 CNS = system: SNB-19 CNS
SNB-75 CNS = system: SNB-75 CNS
SR leukemia = system: SR leukemia
SW-620 colon = system: SW-620 colon
T-47D breast = system: T-47D breast
TK-10 renal = system: TK-10 renal
U251 CNS = system: U251 CNS
UACC-257 melanoma = system: UACC-257 melanoma
UACC-62 melanoma = system: UACC-62 melanoma
UO-31 renal = system: UO-31 renal

What does the source list for `COc1cc2c(cc1C)NC(=O)/C2=C\c1cc(OC)c(OC)c(OC)c1`?
GI50 (786-0 renal): 32.4 µM; TGI (786-0 renal): > 100 µM; GI50 (A498 renal): 31.1 µM; TGI (A498 renal): > 100 µM; GI50 (A549 NSCLC): > 100 µM; TGI (A549 NSCLC): > 100 µM; GI50 (ACHN renal): 64.1 µM; TGI (ACHN renal): > 100 µM; GI50 (BT-549 breast): 29.6 µM; TGI (BT-549 breast): > 100 µM; GI50 (CAKI-1 renal): > 100 µM; TGI (CAKI-1 renal): > 100 µM; GI50 (CCRF-CEM leukemia): 8.18 µM; TGI (CCRF-CEM leukemia): 32.1 µM; GI50 (COLO 205 colon): > 100 µM; TGI (COLO 205 colon): > 100 µM; GI50 (EKVX NSCLC): > 100 µM; TGI (EKVX NSCLC): > 100 µM; GI50 (HCC-2998 colon): > 100 µM; TGI (HCC-2998 colon): > 100 µM; GI50 (HCT-116 colon): 33 µM; TGI (HCT-116 colon): > 100 µM; GI50 (HCT-15 colon): > 100 µM; TGI (HCT-15 colon): > 100 µM; GI50 (HL-60(TB) leukemia): 13.8 µM; TGI (HL-60(TB) leukemia): 45.7 µM; GI50 (HOP-62 NSCLC): 22.1 µM; TGI (HOP-62 NSCLC): 53.9 µM; GI50 (HOP-92 NSCLC): 10.4 µM; TGI (HOP-92 NSCLC): 30.6 µM; GI50 (HS 578T breast): 58.3 µM; TGI (HS 578T breast): > 100 µM; GI50 (HT29 colon): > 100 µM; TGI (HT29 colon): > 100 µM; GI50 (IGROV1 ovarian): 72.1 µM; TGI (IGROV1 ovarian): > 100 µM; GI50 (K-562 leukemia): 23.2 µM; TGI (K-562 leukemia): 70.1 µM; GI50 (KM12 colon): > 100 µM; TGI (KM12 colon): > 100 µM; GI50 (LOX IMVI melanoma): > 100 µM; TGI (LOX IMVI melanoma): > 100 µM; GI50 (M14 melanoma): > 100 µM; TGI (M14 melanoma): > 100 µM; GI50 (MALME-3M melanoma): 72.3 µM; TGI (MALME-3M melanoma): > 100 µM; GI50 (MCF7 breast): 42.2 µM; TGI (MCF7 breast): > 100 µM; GI50 (MDA-MB-231 breast): 15.8 µM; TGI (MDA-MB-231 breast): 59.2 µM; GI50 (MDA-MB-435): > 100 µM; TGI (MDA-MB-435): > 100 µM; GI50 (MOLT-4 leukemia): 12.5 µM; TGI (MOLT-4 leukemia): 38.8 µM; GI50 (NCI-H226 lung): > 100 µM; TGI (NCI-H226 lung): > 100 µM; GI50 (NCI-H23 lung): 29.7 µM; TGI (NCI-H23 lung): > 100 µM; GI50 (NCI-H460 lung): > 100 µM; TGI (NCI-H460 lung): > 100 µM; GI50 (NCI-H522 lung): > 100 µM; TGI (NCI-H522 lung): > 100 µM; GI50 (NCI/ADR-RES ovarian): > 100 µM; TGI (NCI/ADR-RES ovarian): > 100 µM; GI50 (OVCAR-3 ovarian): > 100 µM; TGI (OVCAR-3 ovarian): > 100 µM; GI50 (OVCAR-4 ovarian): > 100 µM; TGI (OVCAR-4 ovarian): > 100 µM; GI50 (OVCAR-5 ovarian): 32.2 µM; TGI (OVCAR-5 ovarian): > 100 µM; GI50 (OVCAR-8 ovarian): > 100 µM; TGI (OVCAR-8 ovarian): > 100 µM; GI50 (PC-3 prostate): > 100 µM; TGI (PC-3 prostate): > 100 µM; GI50 (RPMI-8226 leukemia): > 100 µM; TGI (RPMI-8226 leukemia): > 100 µM; GI50 (RXF 393 renal): 14.2 µM; TGI (RXF 393 renal): 36.1 µM; GI50 (SF-268 CNS): > 100 µM; TGI (SF-268 CNS): > 100 µM; GI50 (SF-295 CNS): 39.5 µM; TGI (SF-295 CNS): > 100 µM; GI50 (SF-539 CNS): 48.4 µM; TGI (SF-539 CNS): > 100 µM; GI50 (SK-MEL-2 melanoma): 34.3 µM; TGI (SK-MEL-2 melanoma): > 100 µM; GI50 (SK-MEL-28 melanoma): > 100 µM; TGI (SK-MEL-28 melanoma): > 100 µM; GI50 (SK-MEL-5 melanoma): > 100 µM; TGI (SK-MEL-5 melanoma): > 100 µM; GI50 (SK-OV-3 ovarian): 83.3 µM; TGI (SK-OV-3 ovarian): > 100 µM; GI50 (SN12C renal): > 100 µM; TGI (SN12C renal): > 100 µM; GI50 (SNB-19 CNS): 91.9 µM; TGI (SNB-19 CNS): > 100 µM; GI50 (SNB-75 CNS): 12.9 µM; TGI (SNB-75 CNS): 31.4 µM; GI50 (SR leukemia): 11.5 µM; TGI (SR leukemia): 47.4 µM; GI50 (SW-620 colon): > 100 µM; TGI (SW-620 colon): > 100 µM; GI50 (T-47D breast): > 100 µM; TGI (T-47D breast): > 100 µM; GI50 (TK-10 renal): 93.7 µM; TGI (TK-10 renal): > 100 µM; GI50 (U251 CNS): 22.9 µM; TGI (U251 CNS): > 100 µM; GI50 (UACC-257 melanoma): 91.2 µM; TGI (UACC-257 melanoma): > 100 µM; GI50 (UACC-62 melanoma): 37.3 µM; TGI (UACC-62 melanoma): > 100 µM; GI50 (UO-31 renal): > 100 µM; TGI (UO-31 renal): > 100 µM

From PubChem BioAssay (NCI)
